Measured values reported in ChEMBL document CHEMBL1141584, “Synthesis, biological evaluation and molecular modelling studies of methyleneimidazole substituted biaryls as inhibitors of human 17alpha-hydroxylase-17,20-lyase (CYP17). Part I: Heterocyclic modifications of the core structure” (Bioorg Med Chem, 2008).

Experiments:
[1] = target: T1, Steroid 17-alpha-hydroxylase/17,20 lyase (Homo sapiens, UniProt P05093); assay: Inhibition of human CYP17 expressed in Escherichia coli co-expressed with NADPH-P450 reductase at 2 uM
T1 sequence (P05093 whole entry): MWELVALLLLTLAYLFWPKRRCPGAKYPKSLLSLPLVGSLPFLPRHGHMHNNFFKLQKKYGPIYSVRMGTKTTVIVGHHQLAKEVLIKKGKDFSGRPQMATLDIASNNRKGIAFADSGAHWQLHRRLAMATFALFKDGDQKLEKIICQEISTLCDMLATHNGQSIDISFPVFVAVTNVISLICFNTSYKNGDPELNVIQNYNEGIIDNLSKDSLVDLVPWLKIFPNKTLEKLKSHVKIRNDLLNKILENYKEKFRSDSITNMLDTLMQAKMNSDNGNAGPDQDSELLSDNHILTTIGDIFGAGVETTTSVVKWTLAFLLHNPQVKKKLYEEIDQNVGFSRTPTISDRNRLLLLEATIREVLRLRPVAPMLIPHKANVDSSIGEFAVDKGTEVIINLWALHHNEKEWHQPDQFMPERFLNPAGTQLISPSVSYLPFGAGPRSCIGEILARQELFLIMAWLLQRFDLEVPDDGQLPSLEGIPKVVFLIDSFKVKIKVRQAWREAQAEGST

[2] = target: T1, Steroid 17-alpha-hydroxylase/17,20 lyase; assay: Inhibition of human CYP17 expressed in Escherichia coli co-expressed with NADPH-P450 reductase at 0.2 uM
CYP1A2 [3] = target: T2, CYP1A2 (Homo sapiens, UniProt P05177); assay: Inhibition of recombinant CYP1A2 at 1 uM; format: ADME
T2 sequence (P05177 whole entry): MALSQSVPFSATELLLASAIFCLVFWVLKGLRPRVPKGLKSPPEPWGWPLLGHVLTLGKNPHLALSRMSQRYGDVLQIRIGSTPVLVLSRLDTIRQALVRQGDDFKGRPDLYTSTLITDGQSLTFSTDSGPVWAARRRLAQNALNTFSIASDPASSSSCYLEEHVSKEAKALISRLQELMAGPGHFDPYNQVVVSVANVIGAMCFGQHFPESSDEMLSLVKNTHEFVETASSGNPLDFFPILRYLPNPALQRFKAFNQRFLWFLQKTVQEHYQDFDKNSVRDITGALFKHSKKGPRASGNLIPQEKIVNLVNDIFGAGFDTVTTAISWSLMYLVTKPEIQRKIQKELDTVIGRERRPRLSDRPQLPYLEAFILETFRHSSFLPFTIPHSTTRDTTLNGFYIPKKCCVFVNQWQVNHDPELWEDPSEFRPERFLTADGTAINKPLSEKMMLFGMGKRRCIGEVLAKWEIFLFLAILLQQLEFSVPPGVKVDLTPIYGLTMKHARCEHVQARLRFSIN

CYP2C9 [4] = target: T3, CYP2C9 (Homo sapiens, UniProt P11712); assay: Inhibition of recombinant CYP2C9 at 10 uM; format: ADME
T3 sequence (P11712 whole entry): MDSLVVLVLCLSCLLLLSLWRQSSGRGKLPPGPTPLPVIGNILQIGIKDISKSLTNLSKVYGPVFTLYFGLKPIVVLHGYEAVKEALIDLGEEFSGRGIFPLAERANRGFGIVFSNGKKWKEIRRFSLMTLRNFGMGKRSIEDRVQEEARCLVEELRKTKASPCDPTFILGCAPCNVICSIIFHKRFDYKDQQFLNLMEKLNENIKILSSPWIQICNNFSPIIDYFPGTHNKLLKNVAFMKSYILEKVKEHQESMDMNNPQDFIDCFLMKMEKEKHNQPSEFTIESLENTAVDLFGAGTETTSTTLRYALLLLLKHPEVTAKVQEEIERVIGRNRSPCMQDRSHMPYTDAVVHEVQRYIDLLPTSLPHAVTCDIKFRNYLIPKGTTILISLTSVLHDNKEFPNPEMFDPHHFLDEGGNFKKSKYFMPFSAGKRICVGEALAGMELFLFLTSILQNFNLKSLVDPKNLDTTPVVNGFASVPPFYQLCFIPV

CYP2C19 [5] = target: T4, CYP2C19 (Homo sapiens, UniProt P33261); assay: Inhibition of recombinant CYP2C19 at 1 uM; format: ADME
T4 sequence (P33261 whole entry): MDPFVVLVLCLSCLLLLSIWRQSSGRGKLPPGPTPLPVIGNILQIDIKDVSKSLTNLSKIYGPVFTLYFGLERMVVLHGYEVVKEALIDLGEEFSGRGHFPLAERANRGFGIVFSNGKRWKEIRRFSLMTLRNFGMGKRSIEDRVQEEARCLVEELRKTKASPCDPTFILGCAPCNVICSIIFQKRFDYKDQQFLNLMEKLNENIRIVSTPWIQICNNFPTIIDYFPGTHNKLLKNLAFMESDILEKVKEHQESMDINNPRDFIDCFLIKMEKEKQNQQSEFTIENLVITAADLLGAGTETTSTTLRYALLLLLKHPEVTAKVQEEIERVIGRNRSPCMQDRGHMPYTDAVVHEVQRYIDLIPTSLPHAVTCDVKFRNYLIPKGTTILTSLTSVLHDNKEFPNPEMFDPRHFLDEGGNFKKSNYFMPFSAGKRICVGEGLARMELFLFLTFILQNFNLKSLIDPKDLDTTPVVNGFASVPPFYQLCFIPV

CYP1A2 [6] = target: T2, CYP1A2; assay: Inhibition of recombinant CYP1A2 at 10 uM; format: ADME
CYP2C19 [7] = target: T4, CYP2C19; assay: Inhibition of recombinant CYP2C19 at 10 uM; format: ADME
CYP2C9 [8] = target: T3, CYP2C9; assay: Inhibition of recombinant CYP2C9 at 1 uM; format: ADME
[9] = target: T1, Steroid 17-alpha-hydroxylase/17,20 lyase; assay: Inhibition of human CYP17 expressed in Escherichia coli co-expressed with NADPH-P450 reductase
CYP3A4 [10] = target: T5, CYP3A4 (Homo sapiens, UniProt P08684); assay: Inhibition of recombinant CYP3A4 at 10 uM; format: ADME
T5 sequence (P08684 whole entry): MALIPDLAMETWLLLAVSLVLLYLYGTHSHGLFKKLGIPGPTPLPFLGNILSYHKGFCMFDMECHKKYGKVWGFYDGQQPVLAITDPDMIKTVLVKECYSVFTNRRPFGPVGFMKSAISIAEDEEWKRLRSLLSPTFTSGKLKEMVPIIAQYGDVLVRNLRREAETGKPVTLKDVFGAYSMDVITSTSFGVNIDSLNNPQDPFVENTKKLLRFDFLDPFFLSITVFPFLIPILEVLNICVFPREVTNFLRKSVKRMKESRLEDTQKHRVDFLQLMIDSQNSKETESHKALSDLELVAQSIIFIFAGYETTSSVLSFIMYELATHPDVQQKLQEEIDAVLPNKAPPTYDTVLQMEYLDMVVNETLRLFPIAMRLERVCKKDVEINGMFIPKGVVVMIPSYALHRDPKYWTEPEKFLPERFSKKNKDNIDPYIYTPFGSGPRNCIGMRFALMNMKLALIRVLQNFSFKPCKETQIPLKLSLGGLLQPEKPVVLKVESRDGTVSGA

CYP3A4 [11] = target: T5, CYP3A4; assay: Inhibition of recombinant CYP3A4 at 1 uM; format: ADME
CYP2B6 [12] = target: T6, CYP2B6 (Homo sapiens, UniProt P20813); assay: Inhibition of recombinant CYP2B6 at 1 uM; format: ADME
T6 sequence (P20813 whole entry): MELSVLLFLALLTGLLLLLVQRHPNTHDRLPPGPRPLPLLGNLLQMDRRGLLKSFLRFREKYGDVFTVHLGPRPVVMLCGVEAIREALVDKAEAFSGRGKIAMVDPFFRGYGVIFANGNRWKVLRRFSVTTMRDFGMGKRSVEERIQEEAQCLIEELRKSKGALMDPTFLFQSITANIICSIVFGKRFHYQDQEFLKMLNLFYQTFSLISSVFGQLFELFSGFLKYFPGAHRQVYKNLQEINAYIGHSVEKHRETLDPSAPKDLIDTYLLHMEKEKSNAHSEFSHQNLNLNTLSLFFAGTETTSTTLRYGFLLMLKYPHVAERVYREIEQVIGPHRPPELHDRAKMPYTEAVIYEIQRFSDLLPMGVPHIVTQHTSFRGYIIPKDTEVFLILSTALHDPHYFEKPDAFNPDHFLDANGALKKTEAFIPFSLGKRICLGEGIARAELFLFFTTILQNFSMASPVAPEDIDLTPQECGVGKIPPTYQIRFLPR

[13] = Cmax in Wistar rat at 50 mg/kg, po; format: ADME, organism-based; parameters: dose 50 mg/kg, route oral; details: in vivo
CYP2D6 [14] = target: T7, CYP2D6 (Homo sapiens, UniProt P10635); assay: Inhibition of recombinant CYP2D6 at 10 uM; format: ADME
T7 sequence (P10635 whole entry): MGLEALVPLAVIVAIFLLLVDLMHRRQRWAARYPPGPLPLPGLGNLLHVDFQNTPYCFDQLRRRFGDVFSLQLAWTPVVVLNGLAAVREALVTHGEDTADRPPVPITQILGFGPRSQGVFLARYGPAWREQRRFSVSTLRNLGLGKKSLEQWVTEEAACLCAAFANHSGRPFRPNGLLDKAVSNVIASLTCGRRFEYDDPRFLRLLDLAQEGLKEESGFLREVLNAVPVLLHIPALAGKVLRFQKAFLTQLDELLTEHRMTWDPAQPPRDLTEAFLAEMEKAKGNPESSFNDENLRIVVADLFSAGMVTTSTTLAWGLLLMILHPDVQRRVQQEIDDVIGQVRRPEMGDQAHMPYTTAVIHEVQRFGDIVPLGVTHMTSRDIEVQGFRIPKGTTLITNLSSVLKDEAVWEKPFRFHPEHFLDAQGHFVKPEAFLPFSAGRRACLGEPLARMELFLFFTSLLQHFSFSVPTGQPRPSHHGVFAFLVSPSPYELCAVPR

[15] = Terminal half life in Wistar rat plasma at 50 mg/kg, po; format: ADME, organism-based; parameters: dose 50 mg/kg, route oral
[16] = target: T8, Steroid 17-alpha-hydroxylase/17,20 lyase (Rattus norvegicus, UniProt P11715); assay: Inhibition of Sprague-Dawley rat testicular CYP17
T8 sequence (P11715 whole entry): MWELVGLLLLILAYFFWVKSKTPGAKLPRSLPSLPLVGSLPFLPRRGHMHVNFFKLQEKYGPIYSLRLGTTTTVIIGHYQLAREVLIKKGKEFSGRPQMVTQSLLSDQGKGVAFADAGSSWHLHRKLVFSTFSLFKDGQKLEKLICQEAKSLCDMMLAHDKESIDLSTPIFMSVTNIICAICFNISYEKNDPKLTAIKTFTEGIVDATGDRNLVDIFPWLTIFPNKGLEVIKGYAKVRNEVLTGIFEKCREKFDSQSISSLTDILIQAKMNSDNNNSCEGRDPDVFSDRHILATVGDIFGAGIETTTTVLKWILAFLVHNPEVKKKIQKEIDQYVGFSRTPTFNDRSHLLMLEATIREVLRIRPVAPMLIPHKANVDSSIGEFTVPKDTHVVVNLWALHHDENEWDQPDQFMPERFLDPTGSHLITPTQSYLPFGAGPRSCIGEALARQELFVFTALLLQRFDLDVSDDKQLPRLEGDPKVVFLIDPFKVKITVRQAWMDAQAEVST

CYP2D6 [17] = target: T7, CYP2D6; assay: Inhibition of recombinant CYP2D6 at 1 uM; format: ADME
[18] = Total body clearance in Wistar rat at 50 mg/kg, po; format: ADME, organism-based; parameters: dose 50 mg/kg, route oral; details: in vivo
[19] = AUC (0 to infinity) in Wistar rat at 50 mg/kg, po; format: ADME, organism-based; parameters: time infinity, dose 50 mg/kg, route oral; details: plasma
CYP2B6 [20] = target: T6, CYP2B6; assay: Inhibition of recombinant CYP2B6 at 10 uM; format: ADME
[21] = Tmax in Wistar rat at 50 mg/kg, po; format: ADME, organism-based; parameters: dose 50 mg/kg, route oral; details: in vivo

Structure (SMILES) | inhibition at 2 µM [1] | inhibition at 0.2 µM [2] | other results
COc1ccc(-c2ccc(Cn3ccnc3)cn2)cc1OC | 2% | 1% | –
COc1ccc(-c2ccc(Cn3ccnc3)cn2)cc1 | 0% | 0% | –
COc1cccc(-c2ccc(Cn3ccnc3)cn2)c1 | 1% | 0% | –
CCC(c1ccc(-c2ccc(SC)s2)cc1)n1ccnc1 (centres undefined) | 3% | 2% | –
CSc1ccc(-c2ccc(Cn3ccnc3)cc2)s1 | 35% | 3% | –
CC(c1ccc(N2CCOCC2)cc1)n1ccnc1 (centres undefined) | 12% | 5% | –
Fc1ccc(-c2ccc(Cn3ccnc3)nc2)cc1 | 2% | 0% | –
Fc1ccc(-c2ccc(Cn3ccnc3)cc2)cn1 | 13% | 4% | –
ClCc1ccc(-c2ccc(Cn3ccnc3)cc2)cn1 | 24% | 9% | –
COc1ccc(-c2csc(Cn3ccnc3)c2)cc1OC | 14% | 0% | –
CCC(c1cc(-c2ccc(F)c(F)c2)cs1)n1ccnc1 (centres undefined) | 68% | 17% | inhibition at 1 µM (CYP1A2 [3]): 93%; inhibition at 10 µM (CYP2C9 [4]): 100%; inhibition at 1 µM (CYP2C19 [5]): 95%; inhibition at 10 µM (CYP1A2 [6]): 96%; inhibition at 10 µM (CYP2C19 [7]): 97%; inhibition at 1 µM (CYP2C9 [8]): 94%
Fc1ccc(-c2ccc(Cn3ccnc3)cn2)cc1 | 5% | 5% | –
Nc1cccc(-c2ccc(Cn3ccnc3)cn2)c1 | 3% | 2% | –
c1cn(Cc2ccc(-c3ccoc3)cc2)cn1 | 29% | 3% | –
COc1cccc(-c2csc(Cn3ccnc3)c2)c1 | 24% | 0% | –
COc1ccccc1-c1ccc(Cn2ccnc2)cn1 | 5% | 0% | –
Fc1ccc(-c2csc(Cn3ccnc3)c2)cc1F | 25% | 7% | –
Fc1ccc(-c2ccc(Cn3ccnc3)cn2)cc1F | 0% | 0% | –
CC(C)C(O)(c1ccc(-c2ccsc2)cc1)c1c[nH]cn1 (centres undefined) | 49% | 7% | –
CCC(c1ccc(-c2cscc2C)cc1)n1ccnc1 (centres undefined) | 84% | 27% | IC50 [9]: 584 nM
c1cn(Cc2ccc(-c3cncnc3)cc2)cn1 | 3% | 5% | –
Cc1cscc1-c1ccc(Cn2ccnc2)cc1 | 27% | 0% | –
c1ccc(-c2csc(Cn3ccnc3)c2)cc1 | 21% | 0% | –
CCC(c1ccc(-c2cscc2C)cc1F)n1ccnc1 (centres undefined) | 92% | 41% | inhibition at 10 µM (CYP3A4 [10]): 97%; inhibition at 1 µM (CYP3A4 [11]): 88%; IC50 [9]: 236 nM
CCC(c1ccc(-c2ccsc2Cl)cc1)n1ccnc1 (centres undefined) | 85% | 40% | inhibition at 10 µM (CYP3A4 [10]): 97%; inhibition at 1 µM (CYP3A4 [11]): 87%; IC50 [9]: 263 nM
COc1ccc(-c2csc(Cn3ccnc3)c2)cc1 | 13% | 0% | –
c1cncc(-c2ccc(Cn3ccnc3)cc2)c1 | 14% | 2% | –
Fc1ccc(-c2csc(Cn3ccnc3)c2)cc1 | 20% | 0% | –
c1ccc(-c2ccc(Cn3ccnc3)cn2)cc1 | 4% | 0% | –
C[C@]12CC[C@H](O)CC1=CC[C@@H]1[C@@H]2CC[C@]2(C)C(c3cccnc3)=CC[C@@H]12 [ABIRATERONE] | – | – | inhibition at 1 µM (CYP2B6 [12]): 2%; Cmax [13]: 592 ng/mL; inhibition at 10 µM (CYP3A4 [10]): 25%; inhibition at 10 µM (CYP2D6 [14]): 7%; half-life [15]: 1.6 h; inhibition at 1 µM (CYP3A4 [11]): 4%; IC50 [16]: 220 nM; inhibition at 10 µM (CYP2C19 [7]): 21%; inhibition at 1 µM (CYP2D6 [17]): 7%; CL/F [18]: 187 mL/min/kg; AUC(0-inf) [19]: 4020 ng·h/mL; inhibition at 10 µM (CYP2B6 [20]): 11%; Tmax [21]: 2 h
